In paper PMC8201173, “Inhibition of Carbonic Anhydrase IX Promotes Apoptosis through Intracellular pH Level Alterations in Cervical Cancer Cells” (International Journal of Molecular Sciences, 2021):

Key:
HeLa cells = assay: Mitochondrial membrane potential (JC-1); assay type: cell-based; details: JC-1 dye
Protocol: Mitochondrial membrane potential (MMP) changes were spectrophotometrically detected. MMP was measured in a fluorometry device (Spectramax M5, BioTek, VT, USA) at wavelengths of 490 nm (excitation) and 530 nm (emission) in suitable conditions according to the manufacturer protocol (Sigma-Aldrich-CS0390, Germany).

hCAIX = target: hCAIX; set-up: method as in PMID 25913118, PMID 26803577; details: stopped-flow CO2 hydration assay; cited from earlier work
HT-29 = assay: WST-1 cytotoxicity assay, HT-29; assay type: cell-based; details: Homo sapiens
Protocol: We used cancer and normal cell lines purchased from ATCC (American Type Culture Collection) and ECACC (European Collection of Authenticated Cell Cultures) and stored in liquid nitrogen.
The cells were planted in 96 well plates (10^4 cells per well). […] WST-1 reactive of 10 µL was added in all wells. Following 4 h incubation, the measurements were carried out in a plate reader (Spectramax M5, BioTek, VT, USA) at wavelengths of 450 and 630 nm.

NS(=O)(=O)c1ccc(CCNCc2cc(Br)ccc2O)cc1 [Compound E, 4-(2-((5-bromo-2-hydroxybenzyl)amino)ethyl) benzenesulphonamide]
Mitochondrial membrane potential (MMP) (HeLa cells): disrupts mitochondrial membrane potential in HeLa cells | Ki (hCAIX): 4.3 nM | IC50 (HT-29; HT-29, 24 h): 89.3 ± 12.2 µM | IC50 (HT-29; HT-29, 48 h): 42.9 ± 16.3 µM | IC50 (HT-29; HT-29, 72 h): 83.3 ± 17.4 µM
